Tested on: MV-4-11 cells
Test: Gene expression microarray analysis (Affymetrix PrimeView) and GSEA
Assay type: cell-based, human
Design: RFU PODN (11730768_x_at) / Fold change /veh PODN (11730768_x_at) / RFU LINC00158 (11744669_a_at) / Fold change /veh LINC00158 (11744669_a_at) / RFU DUSP10 (11751237_a_at) / Fold change /veh DUSP10 (11751237_a_at) / RFU ID3 (11757404_x_at) / Fold change /veh ID3 (11757404_x_at) / RFU PLEKHG5 (11737974_s_at) / Fold change /veh PLEKHG5 (11737974_s_at) / RFU LRRC4B (11730491_at) / Fold change /veh LRRC4B (11730491_at) / RFU GIMAP4 (11747438_a_at) / Fold change /veh GIMAP4 (11747438_a_at) / RFU KRT8 (11758183_x_at) / Fold change /veh KRT8 (11758183_x_at) / RFU CNN1 (11734310_a_at) / Fold change /veh CNN1 (11734310_a_at) / RFU VPS37D (11726825_at) / Fold change /veh VPS37D (11726825_at) / RFU C10orf10 (11716522_x_at) / Fold change /veh C10orf10 (11716522_x_at) / RFU KIR2DL2 /// KIR2DL4 /// KIR2DL5A /// KIR2DL5B /// KIR2DS1 /// KIR2DS2 /// KIR2DS3 /// KIR2DS4 /// KIR3DL3 /// KIR3DL3 /// KIR3DS1 (11738374_at) / Fold change /veh KIR2DL2 /// KIR2DL4 /// KIR2DL5A /// KIR2DL5B /// KIR2DS1 /// KIR2DS2 /// KIR2DS3 /// KIR2DS4 /// KIR3DL3 /// KIR3DL3 /// KIR3DS1 (11738374_at) / RFU C1QL1 (11718748_at) / Fold change /veh C1QL1 (11718748_at) / RFU TMPRSS4 (11747572_a_at) / Fold change /veh TMPRSS4 (11747572_a_at) / RFU HAMP (11756126_x_at) / Fold change /veh HAMP (11756126_x_at) / RFU RNFT2 (11725882_a_at) / Fold change /veh RNFT2 (11725882_a_at) / RFU NR4A2 (11747474_a_at) / Fold change /veh NR4A2 (11747474_a_at) / RFU ABCC12 (11746883_a_at) / Fold change /veh ABCC12 (11746883_a_at) / RFU TMEM136 (11760407_x_at) / Fold change /veh TMEM136 (11760407_x_at) / RFU CLDN22 /// WWC2 (11732394_at) / Fold change /veh CLDN22 /// WWC2 (11732394_at) / RFU HLA-DPB1 (11760878_x_at) / Fold change /veh HLA-DPB1 (11760878_x_at) / RFU SPINT1 (11716480_a_at) / Fold change /veh SPINT1 (11716480_a_at) / RFU GAP43 (11754022_s_at) / Fold change /veh GAP43 (11754022_s_at) / RFU A4GNT (11735810_at) / Fold change /veh A4GNT (11735810_at) / RFU PRB3 (11715151_x_at) / Fold change /veh PRB3 (11715151_x_at) / RFU TUBB4B (11761932_at) / Fold change /veh TUBB4B (11761932_at) / RFU CAPN14 (11732068_a_at) / Fold change /veh CAPN14 (11732068_a_at) / RFU TMCC2 (11721928_a_at) / Fold change /veh TMCC2 (11721928_a_at) / RFU IRGQ (11745062_a_at) / Fold change /veh IRGQ (11745062_a_at) / RFU FAM174B (11720279_a_at) / Fold change /veh FAM174B (11720279_a_at) / RFU TMPRSS4 (11748680_a_at) / Fold change /veh TMPRSS4 (11748680_a_at) / RFU FAM212B (11763350_a_at) / Fold change /veh FAM212B (11763350_a_at) / RFU PLEKHG5 (11743358_a_at) / Fold change /veh PLEKHG5 (11743358_a_at) / RFU ZSCAN30 (11745921_a_at) / Fold change /veh ZSCAN30 (11745921_a_at) / RFU CMKLR1 (11741424_a_at) / Fold change /veh CMKLR1 (11741424_a_at) / RFU LOC101060620 /// MAPK8IP1 (11723275_at) / Fold change /veh LOC101060620 /// MAPK8IP1 (11723275_at) / RFU SPTSSB (11747773_x_at) / Fold change /veh SPTSSB (11747773_x_at) / RFU PRSS12 (11739890_at) / Fold change /veh PRSS12 (11739890_at) / RFU BIN1 (11741810_x_at) / Fold change /veh BIN1 (11741810_x_at) / RFU WNT11 (11732464_a_at) / Fold change /veh WNT11 (11732464_a_at) / RFU C10orf10 (11716521_a_at) / Fold change /veh C10orf10 (11716521_a_at) / RFU C5orf56 (11738089_at) / Fold change /veh C5orf56 (11738089_at) / RFU CYB561 (11721691_x_at) / Fold change /veh CYB561 (11721691_x_at) / RFU ANKRD19P (11752326_a_at) / Fold change /veh ANKRD19P (11752326_a_at) / RFU OR2T12 /// OR2T33 /// OR2T8 (11738714_s_at) / Fold change /veh OR2T12 /// OR2T33 /// OR2T8 (11738714_s_at) / RFU VCAN (11748164_a_at) / Fold change /veh VCAN (11748164_a_at) / RFU JSRP1 (11732532_at) / Fold change /veh JSRP1 (11732532_at) / RFU KRTAP10-11 (11738290_x_at) / Fold change /veh KRTAP10-11 (11738290_x_at) / RFU MYO3A (11730013_a_at) / Fold change /veh MYO3A (11730013_a_at) / RFU EBF3 (11725865_a_at) / Fold change /veh EBF3 (11725865_a_at) / RFU CAMK2N1 (11719241_x_at) / Fold change /veh CAMK2N1 (11719241_x_at) / RFU C5orf56 (11738088_a_at) / Fold change /veh C5orf56 (11738088_a_at) / RFU OLFML3 (11715873_a_at) / Fold change /veh OLFML3 (11715873_a_at) / RFU LOC100653217 /// NTM (11731650_a_at) / Fold change /veh LOC100653217 /// NTM (11731650_a_at) / RFU MAPK11 (11762145_a_at) / Fold change /veh MAPK11 (11762145_a_at) / RFU FIZ1 (11724087_x_at) / Fold change /veh FIZ1 (11724087_x_at) / RFU OASL (11726364_x_at) / Fold change /veh OASL (11726364_x_at) / RFU SOX15 (11748057_x_at) / Fold change /veh SOX15 (11748057_x_at) / RFU CD79A (11719716_a_at) / Fold change /veh CD79A (11719716_a_at) / RFU HIST1H1D (11736915_at) / Fold change /veh HIST1H1D (11736915_at) / RFU CASKIN2 (11723855_a_at) / Fold change /veh CASKIN2 (11723855_a_at) / RFU LOC730098 (11760151_x_at) / Fold change /veh LOC730098 (11760151_x_at) / RFU OR4N2 (11742367_at) / Fold change /veh OR4N2 (11742367_at) / RFU PRRT2 (11749266_a_at) / Fold change /veh PRRT2 (11749266_a_at) / RFU SNX32 (11753110_a_at) / Fold change /veh SNX32 (11753110_a_at) / RFU CDHR5 (11726645_a_at) / Fold change /veh CDHR5 (11726645_a_at) / RFU RCAN1 (11760418_a_at) / Fold change /veh RCAN1 (11760418_a_at) / RFU FAM167A (11723789_a_at) / Fold change /veh FAM167A (11723789_a_at) / RFU FAM26E (11764081_at) / Fold change /veh FAM26E (11764081_at) / RFU ISYNA1 (11749810_s_at) / Fold change /veh ISYNA1 (11749810_s_at) / RFU ACY1 (11761880_at) / Fold change /veh ACY1 (11761880_at) / RFU 11764098_at / Fold change /veh 11764098_at / RFU SAMD14 (11745864_x_at) / Fold change /veh SAMD14 (11745864_x_at) / RFU NPB (11741838_a_at) / Fold change /veh NPB (11741838_a_at) / RFU TMPRSS6 (11731388_a_at) / Fold change /veh TMPRSS6 (11731388_a_at) / RFU KRTAP10-2 (11738614_at) / Fold change /veh KRTAP10-2 (11738614_at) / RFU ARHGAP8 /// PRR5-ARHGAP8 (11727945_x_at) / Fold change /veh ARHGAP8 /// PRR5-ARHGAP8 (11727945_x_at) / RFU KRTAP5-7 /// NADSYN1 (11734609_at) / Fold change /veh KRTAP5-7 /// NADSYN1 (11734609_at) / RFU RASL12 (11751679_a_at) / Fold change /veh RASL12 (11751679_a_at) / RFU CDKN2B (11736163_a_at) / Fold change /veh CDKN2B (11736163_a_at) / RFU PRF1 (11729649_at) / Fold change /veh PRF1 (11729649_at) / RFU, ZNF638 /// ZNF638-IT1 / Fold change vs veh, ZNF638 /// ZNF638-IT1 / RFU, PANK3 / Fold change vs veh, PANK3 / RFU, SH3YL1 / Fold change vs veh, SH3YL1 / RFU, ZEB2 / Fold change vs veh, ZEB2 / RFU, NRIP1 / Fold change vs veh, NRIP1 / RFU, PTTG1IP / Fold change vs veh, PTTG1IP / RFU, CAPN2 / Fold change vs veh, CAPN2 / RFU, MED14 / Fold change vs veh, MED14 / RFU, SNORA58 / Fold change vs veh, SNORA58 / RFU, C1orf63 / Fold change vs veh, C1orf63 / RFU, LRRFIP1 / Fold change vs veh, LRRFIP1 / RFU, NDUFAF7 / Fold change vs veh, NDUFAF7 / RFU, SLC12A2 / Fold change vs veh, SLC12A2 / RFU, IBTK / Fold change vs veh, IBTK / RFU, ESF1 / Fold change vs veh, ESF1 / Fold change vs veh, TMEM50B / RFU, TAOK1 / Fold change vs veh, TAOK1 / RFU, ACBD3 / Fold change vs veh, ACBD3 / RFU, TMA16 / Fold change vs veh, TMA16 / RFU, RWDD3 / Fold change vs veh, RWDD3 / RFU, BCAT1 / Fold change vs veh, BCAT1 / RFU, EDEM3 / Fold change vs veh, EDEM3 / RFU, TMEM33 / Fold change vs veh, TMEM33 / RFU, WDR75 / Fold change vs veh, WDR75 / RFU, AHCTF1 / Fold change vs veh, AHCTF1 / RFU, TFRC / Fold change vs veh, TFRC / RFU, ZDHHC17 / Fold change vs veh, ZDHHC17 / RFU, NOM1 / Fold change vs veh, NOM1 / RFU, ARL8B / Fold change vs veh, ARL8B / RFU, ZBTB11 / Fold change vs veh, ZBTB11 / RFU, TAMM41 / Fold change vs veh, TAMM41 / RFU, KIAA1704 /// LOC100996395 / Fold change vs veh, KIAA1704 /// LOC100996395 / RFU, ING1 / Fold change vs veh, ING1 / RFU, TRMT61B / Fold change vs veh, TRMT61B / RFU, FUBP3 / Fold change vs veh, FUBP3 / RFU, TP53 / Fold change vs veh, TP53 / RFU, TNKS2 / Fold change vs veh, TNKS2 / RFU, ZFP14 / Fold change vs veh, ZFP14 / RFU, ACTR2 / Fold change vs veh, ACTR2 / RFU, PPP3R1 / Fold change vs veh, PPP3R1 / RFU, PIK3R1 / Fold change vs veh, PIK3R1 / RFU, HNRNPA1 / Fold change vs veh, HNRNPA1 / RFU, RNF170 / Fold change vs veh, RNF170 / RFU, ZNF28 / Fold change vs veh, ZNF28 / RFU, RNGTT / Fold change vs veh, RNGTT / RFU, OGT / Fold change vs veh, OGT / RFU, BRD1 / Fold change vs veh, BRD1 / RFU, MARS / Fold change vs veh, MARS / RFU, ZNF655 / Fold change vs veh, ZNF655 / RFU, FAHD1 / Fold change vs veh, FAHD1 / RFU, BDP1 / Fold change vs veh, BDP1 / RFU, LRRCC1 / Fold change vs veh, LRRCC1 / RFU, ARID1A / Fold change vs veh, ARID1A / RFU, ZNF146 / Fold change vs veh, ZNF146 / RFU, ZNF330 / Fold change vs veh, ZNF330 / RFU, GPN3 / Fold change vs veh, GPN3 / RFU, C9orf123 / Fold change vs veh, C9orf123 / RFU, N4BP2L2 / Fold change vs veh, N4BP2L2 / RFU, ARFIP1 / Fold change vs veh, ARFIP1 / RFU, FAM179B / Fold change vs veh, FAM179B / RFU, BCL10 / Fold change vs veh, BCL10 / RFU, UHRF1BP1L / Fold change vs veh, UHRF1BP1L / RFU, BET1 / Fold change vs veh, BET1 / RFU, CNOT2 / Fold change vs veh, CNOT2 / RFU, ZNF268 / Fold change vs veh, ZNF268 / Fold change vs veh, ZNF507 / RFU, DGCR2 / Fold change vs veh, DGCR2 / RFU, WDSUB1 / Fold change vs veh, WDSUB1 / Fold change vs veh, HSP90B1 /// MIR3652 / RFU, ADSS / Fold change vs veh, ADSS / RFU, GK / Fold change vs veh, GK / RFU, ZNF148 / Fold change vs veh, ZNF148 / RFU, TAF9 / Fold change vs veh, TAF9 / RFU, SLC1A5 / Fold change vs veh, SLC1A5 / RFU, SLMO2 / Fold change vs veh, SLMO2 / RFU, ABCC4 / Fold change vs veh, ABCC4 / RFU, LOC101060439 /// RAP1B / Fold change vs veh, LOC101060439 /// RAP1B / RFU, RFX7 / Fold change vs veh, RFX7 / RFU, GTPBP10 / Fold change vs veh, GTPBP10 / RFU, CNEP1R1 / Fold change vs veh, CNEP1R1 / RFU, BIVM-ERCC5 /// ERCC5 / Fold change vs veh, BIVM-ERCC5 /// ERCC5 / RFU, ILF3 / Fold change vs veh, ILF3 / RFU 11762660_at / Fold change /veh 11762660_at / RFU VCAN (11757783_s_at) / Fold change /veh VCAN (11757783_s_at) / RFU DDX43 (11728927_at) / Fold change /veh DDX43 (11728927_at) / RFU KRT8 (11758188_x_at) / Fold change /veh KRT8 (11758188_x_at) / RFU NKD1 (11759106_at) / Fold change /veh NKD1 (11759106_at) / RFU SRD5A1 (11742802_a_at) / Fold change /veh SRD5A1 (11742802_a_at) / RFU TPSAB1 /// TPSB2 (11721975_s_at) / Fold change /veh TPSAB1 /// TPSB2 (11721975_s_at) / RFU GSTM3 (11746129_a_at) / Fold change /veh GSTM3 (11746129_a_at) / RFU IL23R (11737362_x_at) / Fold change /veh IL23R (11737362_x_at) / RFU TMEM51 (11727254_a_at) / Fold change /veh TMEM51 (11727254_a_at) / RFU PIWIL2 (11732686_x_at) / Fold change /veh PIWIL2 (11732686_x_at) / RFU ORM1 (11744905_x_at) / Fold change /veh ORM1 (11744905_x_at) / RFU CCDC152 (11743942_at) / Fold change /veh CCDC152 (11743942_at) / RFU ECM1 (11717891_a_at) / Fold change /veh ECM1 (11717891_a_at) / RFU IL23R (11748794_a_at) / Fold change /veh IL23R (11748794_a_at) / RFU TNFAIP8L3 (11732012_x_at) / Fold change /veh TNFAIP8L3 (11732012_x_at) / RFU MBOAT4 (11741988_at) / Fold change /veh MBOAT4 (11741988_at) / RFU 11764193_at / Fold change /veh 11764193_at / RFU TMEM53 (11763286_at) / Fold change /veh TMEM53 (11763286_at) / RFU MAGEB2 (11727129_at) / Fold change /veh MAGEB2 (11727129_at) / RFU TMEM200A (11744735_a_at) / Fold change /veh TMEM200A (11744735_a_at) / RFU CCDC152 (11751479_a_at) / Fold change /veh CCDC152 (11751479_a_at) / RFU FAM211A (11726209_a_at) / Fold change /veh FAM211A (11726209_a_at) / RFU RGS16 (11746705_a_at) / Fold change /veh RGS16 (11746705_a_at) / RFU VCAN (11755009_s_at) / Fold change /veh VCAN (11755009_s_at) / RFU RHOB (11743442_s_at) / Fold change /veh RHOB (11743442_s_at) / RFU RGS16 (11720943_a_at) / Fold change /veh RGS16 (11720943_a_at) / RFU RGS16 (11720944_at) / Fold change /veh RGS16 (11720944_at) / RFU, VPS4B / Fold change vs veh, VPS4B / RFU, CREB1 / Fold change vs veh, CREB1 / RFU, DNAJC13 / Fold change vs veh, DNAJC13 / RFU, GNAQ / Fold change vs veh, GNAQ / RFU, CDK5R1 / Fold change vs veh, CDK5R1 / RFU, ZRANB3 / Fold change vs veh, ZRANB3 / RFU, CUL4A / Fold change vs veh, CUL4A / RFU, CCNY / Fold change vs veh, CCNY / RFU, UFL1 / Fold change vs veh, UFL1 / RFU, COG3 / Fold change vs veh, COG3 / RFU, DIAPH2 / Fold change vs veh, DIAPH2 / RFU, SKA2 / Fold change vs veh, SKA2 / RFU, AFF3 / Fold change vs veh, AFF3 / RFU, LMF1 / Fold change vs veh, LMF1 / RFU, IPO11 / Fold change vs veh, IPO11 / RFU, DFFB / Fold change vs veh, DFFB / RFU, FOXP1 / Fold change vs veh, FOXP1 / RFU, CARD8 / Fold change vs veh, CARD8 / RFU, STRN3 / Fold change vs veh, STRN3 / RFU, ADK / Fold change vs veh, ADK / RFU, RASSF2 / Fold change vs veh, RASSF2 / RFU, WIPF1 / Fold change vs veh, WIPF1 / RFU, LARP1B / Fold change vs veh, LARP1B / RFU, RASA1 / Fold change vs veh, RASA1 / RFU, RB1 / Fold change vs veh, RB1 / RFU, PPFIA1 / Fold change vs veh, PPFIA1 / RFU, MAT2A / Fold change vs veh, MAT2A / RFU, CCT5 / Fold change vs veh, CCT5 / RFU, WDR92 / Fold change vs veh, WDR92 / RFU, CUX1 / Fold change vs veh, CUX1 / RFU, TTC7A / Fold change vs veh, TTC7A / RFU, TMEM135 / Fold change vs veh, TMEM135 / RFU, DEPTOR / Fold change vs veh, DEPTOR / RFU, CPM / Fold change vs veh, CPM / RFU, DNAJB6 / Fold change vs veh, DNAJB6 / RFU, CACNA2D3 / Fold change vs veh, CACNA2D3 / RFU, DTX4 / Fold change vs veh, DTX4 / RFU, TFCP2 / Fold change vs veh, TFCP2 / RFU, GMCL1 /// GMCL1P1 / Fold change vs veh, GMCL1 /// GMCL1P1 / RFU, AEBP2 / Fold change vs veh, AEBP2 / RFU, SNHG1 /// SNORD22 /// SNORD25 /// SNORD26 /// SNORD27 /// SNORD28 /// SNORD29 /// SNORD31 / Fold change vs veh, SNHG1 /// SNORD22 /// SNORD25 /// SNORD26 /// SNORD27 /// SNORD28 /// SNORD29 /// SNORD31 / Fold change (Aza/veh), C12orf56 (ProbeSet 11735607_a_at) / Fold change (ACY-1035/veh), C12orf56 (ProbeSet 11735607_a_at) / Fold change (Aza/veh), FGFR1OP (ProbeSet 11751329_s_at) / Fold change (ACY-1035/veh), FGFR1OP (ProbeSet 11751329_s_at) / Fold change (Aza/veh), VPS36 (ProbeSet 11739960_a_at) / Fold change (ACY-1035/veh), VPS36 (ProbeSet 11739960_a_at) / RFU SYPL1 (11715823_x_at) / Fold change /veh SYPL1 (11715823_x_at) / RFU IGFBP7 (11715501_s_at) / Fold change /veh IGFBP7 (11715501_s_at) / RFU REEP3 (11722064_at) / Fold change /veh REEP3 (11722064_at) / RFU IGLL1 (11728026_x_at) / Fold change /veh IGLL1 (11728026_x_at): dose or concentration left out as unconfirmed
Settings: MV-4-11 cells, 48 hours

Compound: Nc1ccc(-c2cccs2)cc1NC(=O)c1ccc2c(c1)cc(C1CC1)n2CCN1CCOCC1 [ACY-1035]
- RFU RGS16 (11720943_a_at): 70.47 RFU
